In patent publication US20230107216A1, “PANTETHEINE DERIVATIVES AND USES THEREOF” (Comet Therapeutics, Inc., priority 2018, published 2023):
Read-outs that look alike come from different tables or passages of the source.

Experiments:
[1] = test system: primary culture of rat embryo mesencephalic cells (microglia, astrocytes and neurons) exposed to LPS; experiment: Neuroprotective effect on damage induced by LPS on culture of mesencephalic neurons (NO, TNF-α, IL-1β, TH positive neurons); assay type: cell-based; conditions: Rattus norvegicus, Neuron, 120 h, 50 uM, after 5 days of LPS exposure; list at threshold 15%; read-out: % reversion of TH positive neurons
Protocol: Drug preparation. […] The stock solutions will be prepared 1000× the concentration in 100% DMSO. The final concentration of the vehicle (DMSO) is set at 0.1%.
Test animals. Pregnant Wistar rats (Janvier; France) are used for the study. They are group-housed and maintained in a room with controlled temperature (21-22° C.) and a reversed light-dark cycle (12h/12h; lights on: 17:30-05:30; lights off: 05:30-17:30) with food and water available ad libitum.
The protocol is performed in 3 independent cultures. For each culture, each condition is performed in sextuplicate.
Female rat of 15 days gestation is killed by cervical dislocation. Fetuses are removed from the uterus and their brains are harvested and placed in ice-cold medium (Leibovitz's L15 medium, Gibco). Only ventral mesencephalic flexure is used for the cell preparations. The midbrain is dissociated by trypsinization. The reaction is stopped, and the suspension is triturated and centrifuged. The pellet of dissociated cells is resuspended in culture medium consisted of DMEM-F12 (Gibco), containing 10% FBS (ATCC), 10% Horse serum (Gibco) and 2 mM L-glutamine (Gibco). Viable cells are counted and seeded on 96-well plates, precoated with poly-L-lysine. Cells are maintained in a humidified incubator at 37° C. in 5% CO2-95% air atmosphere. Half of the medium is changed on day 2 and day 5.
Treatment. On day 7, culture media are removed and replaced by new medium consisting of DMEM-F12 (Gibco) supplemented with 2% FBS (ATCC), 2% Horse serum (Gibco) and 2 mM L-glutamine (Gibco) and containing vehicle or test substances. After 1-hour exposure, LPS at 10 ng/ml is added and exposure further continued for 24 hours or 5 days period.
Inflammatory response measurement and neuronal death evaluation. NO production is measured in the media 24h and 5 days after LPS exposure using the Griess reagent kit (Molecular Probes). The Griess reagent Assay is a colorimetric reaction assay which measures the conversion of a sulfanilic salt into an azo dye product by nitrite. Visible wavelength absorbance data is collected using a 96-well plate reader at 570 nm (Multiskan EX, Thermo Fisher, France). IL-1β and TNF-α release are measured in the media 24h after LPS exposure using the ELISA development kit (PeproTech). The ELISA plate, previously coated with anti-IL-1β or anti-TNF-αantibody at 1 μg/ml, is incubated 1h with PBS containing 1% of BSA (bovine serum albumin). After washing four times with PBS containing 0.05% of Tween-20, the plate is successively incubated 2h with supernatant, 2h with biotinylated antibody at 0.5 μg/ml in PBS containing 0.1% of BSA and 0.05% of Tween-20, 45 min with Avidin-HRP conjugated at 1/2000 and 30 min with color ABTS substrate (Sigma). Visible wavelength absorbance data is collected using a 96-well plate reader at 405 nm with wavelength correction set at 650 nm (Multiskan EX, Thermo Fisher, France).
Immunodetection of tyrosine hydroxylase positive neurons. On day 12 (5 days after LPS exposure), cultures are fixed 30 min at 4° C. with paraformaldehyde in PBS (4%, Sigma). Then, cells are successively permeabilized with 0.1% Triton X100 for 30 min, saturated with PBS containing 3% of BSA (bovine serum albumin) and are incubated 2h with anti-tyrosine hydroxylase antibody (Sigma, 1:10000; clone TH-2) at 1/10 000 in PBS containing 0.5% of BSA. Cells are washed three times with PBS containing 0.5% of BSA, and they are incubated 1h with goat anti mouse antibody coupled with AF488 (Invitrogen A11001) diluted at 1/1000 in PBS containing 0.5% of BSA. Finally, nuclei are stained with DAPI at 1/1000 in PBS containing 0.5% of BSA. After rinsing with PBS, the plate is visualized and examined with Cell Insight HCS (Thermo Scientific) to determine the number of tyrosine hydroxylase positive cells per well.
Statistical Analysis. The drug-induced effect on NO and cytokines is calculated by setting the response of the LPS-stimulated control as 100%. […]

[2] = test system: Propionic Acidemia (PA) primary fibroblasts Tsi 6337; experiment: Mitochondrial respiration, XFe96 Extracellular Flux Analyzer (OCR/ECAR), PA fibroblasts Tsi 6337; assay type: cell-based; conditions: Homo sapiens, Fibroblast, read-out: Increase in Maximal Respiratory Capacity AUC
Protocol: The effect of the compounds of the present disclosure on mitochondrial respiration was measured with a XFe96 Extracellular Flux Analyzer (Seahorse Bioscience, Agilent Technologies) and Oxygen consumption Rate (OCR) and Extracellular acidification rate (ECAR) determined.
Cell culture and treatments. Primary adherent fibroblasts were cultured in minimum essential medium (MEM) (Gibco, 25030081) supplemented with 2 mM L-Glutamine (Gibco, 25030081), 15% fetal bovine serum (FBS) (Gibco, 26400044) and 1% penicillin/streptomycin (Gibco, 5140122) at 37° C. and 5% CO2. Cells were collected for either passaging or experiment at ˜70-80% confluence. Cells were obtained by trypsinization and seeded at 20000 cells/well in cell culture microplates (Seahorse Bioscience, 101085-004) and allowed to adhere for 16 hours in culture media.
By profiling different primary cells and/or optimizing their culture media or environmental components one can select cell lines and/or conditions that are appropriate for the biological or disease model. In the present example, 24 hours prior to OCR and ECAR profiling, media was changed to Dulbecco's Modified Eagle Medium (DMEM, Agilent Seahorse 103575-100) with the appropriate supplements for the different primary cells (10 mM glucose, 2 mM L-glutamine, 1 mM pyruvate, 10% FBS; 1 mM glucose, 2 mM L-glutamine, 1 mM pyruvate, 10% FBS; 10 mM glucose, 10% FBS; 5 mM glucose 10% FBS; 1 mM glucose 10% FBS). Cells used in this example were: Propionic Acidemia (PA) (GM00371, GM03590 Coriell Institute for Medical Research, Tsi 6337, Tsi 4626, Tsi 3618 Trans-Hit Bio), Methylmalonic Acidemia (MMA) (GM01673, Coriell Institute for Medical Research, Tsi 5224 Trans-Hit Bio), Branched chain ketoacid dehydrogenase kinase (BCKDK) (GM00612, GM00649 Coriell Institute for Medical Research), Subnormal activation of pyruvate dehydrogenase complex (PDH) (GM01503 Coriell Institute for Medical Research), Very long-chain acyl-CoA dehydrogenase (VLCAD) (GM17475), Leigh Syndrome (LS) (GM03672, GM13411 Coriell Institute for Medical Research), Pyruvate Carboxylase Deficiency (PC) (GM00444 Coriell Institute for Medical Research), Glutaric Acidemia-I (GA) (GM10653), Friedreich's Ataxia (FXN) (GM04078 Coriell Institute for Medical Research, Huntington's disease (HD) (GM21756 Coriell Institute for Medical Research), Ornithine Transcarbamylase Deficiency (OTC) (GM12756 Coriell Institute for Medical Research), Kearns-Sayre Syndrome (KSS) (GM06225 Coriell Institute for Medical Research).
One hour before the assay, the cells were washed with freshly prepared unbuffered serum free-Seahorse XF Assay medium (Seahorse Bioscience, North America, USA, 103575-100) with the same supplements as for the previous 24 hour incubation.
After baseline measurements of OCR, cells were challenged with compounds of the present disclosure at different concentrations (10 to 50 μM) or vehicle (DMSO, 0.1%) and a post-compound baseline was recorded. OCR was measured after sequentially adding to each well 1 μg/ml oligomycin (inhibitor of ATP synthase Sigma-Aldrich, 753531), then maximal OCR was determined with carbonyl cyanide 4-(trifluoromethoxy) phenylhydrazone (FCCP, Sigma-Aldrich, C2920), (uncoupler of oxidative phosphorylation) and 0.5 μM of rotenone (Sigma-Aldrich, R8875) plus antimycin A (Sigma-Aldrich, A8674) (inhibitors of mitochondrial complex I and III) for determination of rotenone-antimycin insensitive respiration together with Hoechst for nuclear staining in situ when normalized to cell counts. After the analysis and nuclear staining, the XFp microplate was transferred to the Cytation 5, and the nuclear images were captured, the individual nuclei were identified and counted by BioTek Gen5 software. Data were expressed as pmol of O2 per minute and normalized by nuclear staining and baselined to pre-compound addition.
Assay conditions were as stated below.
Assay specifics on assay conditions are indicated below when readouts were normalized to cell counts. […]

HepG2 cells = experiment: Mitochondrial membrane potential (MITO-ID MP detection Kit); assay type: cell-based; conditions: Homo sapiens, 168 h, 7 days, read-out: % increase in Mitochondrial Membrane Potential
Protocol: HepG2 cells (ATCC, HB-8065) were cultured (5% CO2 at 37° C.) and plated in Poly-D-Lysine 384-Well plate (Corning, 356663) at a density of 160000 cells/mL in 50 μL/well. Culture and assay media consisted of DMEM (Gibco, 11995-065) supplemented with 1% Penicillin-Streptomycin and 10% FBS (Hyclone, SV30087.03).
MITO-ID® MP detection Kit (ENZ-51018) was used and manufacturer instructions followed. Cells were allowed to settle for 30 min at room temperature and further incubated overnight (37° C. and 5% CO2) for adherence. Next day, test compounds (50-10 μM) and vehicle DMSO (0.2%) were added at the recommended volumes to the 384-well plate for 7 days without media change using a Tecan compound dispenser. All the solutions and wash buffers were prepared and dispensed according to manufacturer's volumes for a 384-well plate format.

[3] = test system: monocyte-derived M1 macrophages; experiment: M1 differentiation assay (macrophage TNFα, IL6, IL10 ELISA, FACS); assay type: cell-based, human; conditions: Homo sapiens, Macrophage
Outline: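 CD14+ human blood monocytes (100,000) differentiated 6 days with 10 ng/ml GM-CSF plus compound at 10 or 50 μM, refreshed days 2 and 4. Matured 24 h with GM-CSF, IFNγ, LPS plus compound. Supernatant TNFα, IL6, IL10 by ELISA; FACS M1 phenotype CD86+CD68+CD163−.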

[4] = PA Tsi 6337, assay condition A (10 mM glucose, 2 mM L-glutamine, 1 mM pyruvate, 10% FBS)

Row | SMILES | inhibition at 50 µM [1] [%] | activation at 10 µM [2, 4] [%] | activation at 50 µM (HepG2 cells; 50 uM) [%] | activation at 10 µM ([2]; PA Tsi 6337, assay condition D (1 mM glucose, 10% FBS)) [%] | activation at 10 µM (HepG2 cells) [%] | inhibition at 10 µM ([3]; 10 uM, read-out: % decrease in Macrophage IL-6 Secretion) [%] | activation at 50 µM ([3]; 50 uM, read-out: % Increase in IL-10 Secretion) [%]
1 | CC(C)(CO)[C@@H](O)C(=O)NCCC(=O)NCCS [Preparatory Ex 5] | ≥ 15 | – | – | – | – | – | –
2 | C[C@@H](CC(=O)SCCNC(=O)CCNC(=O)[C@H](O)C(C)(C)CO)OC(=O)CCC(=O)O [Compound 1247, 4-{[(2S)-4-[(2-{3-[(2R)-2,4-dihydroxy-3,3-dimethylbutanamido]propanamido}ethyl)sulfanyl]-4-oxobutan-2-yl]oxy}-4-oxobutanoic acid] | – | ≥ 10 | > 20 | – | – | – | –
3 | COC(=O)CCC(=O)OCC(C)(C)[C@@H](O)C(=O)NCCC(=O)NCCSC(=O)CCC(=O)OC [Compound 1230] | – | ≥ 10 | – | ≥ 10 | > 30 | – | –
4 | CC(C)(CO)[C@@H](O)C(=O)NCCC(=O)NCCSC(=O)C1CCC(=O)O1 (stereo partly drawn) [Compound 1229, S-2-{3-[(R)-2,4-dihydroxy-3,3-dimethylbutyrylamino]propionylamino} ethyl 5-oxo-3,4-dihydro-2H-furan-2-carbothioate] | – | ≥ 10 | – | – | > 20 | ≥ 30 | ≥ 30
